Earlier results, collected in patent publication US6656473B2, “Tryptophan source from plants and uses thereof” (priority 2000, dated 2003).

Molecular target: plasma albumin (Homo sapiens, UniProt P02768)
Settings: after absorption

Sequence of plasma albumin (P02768 25-609): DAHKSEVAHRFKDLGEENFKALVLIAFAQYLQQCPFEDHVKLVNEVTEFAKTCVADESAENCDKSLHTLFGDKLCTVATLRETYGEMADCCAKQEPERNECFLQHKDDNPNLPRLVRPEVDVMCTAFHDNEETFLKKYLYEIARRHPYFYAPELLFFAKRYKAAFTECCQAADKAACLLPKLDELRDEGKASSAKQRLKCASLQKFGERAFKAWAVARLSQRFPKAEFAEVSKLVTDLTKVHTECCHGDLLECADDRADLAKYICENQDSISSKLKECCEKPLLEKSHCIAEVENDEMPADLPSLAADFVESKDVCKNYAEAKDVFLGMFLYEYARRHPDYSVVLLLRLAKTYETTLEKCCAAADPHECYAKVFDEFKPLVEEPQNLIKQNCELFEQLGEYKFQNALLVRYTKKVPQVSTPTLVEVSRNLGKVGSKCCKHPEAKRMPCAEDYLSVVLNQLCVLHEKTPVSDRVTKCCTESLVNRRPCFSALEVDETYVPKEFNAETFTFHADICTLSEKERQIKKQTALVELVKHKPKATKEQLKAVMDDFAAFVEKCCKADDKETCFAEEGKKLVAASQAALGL

Share circulating as free tryptophan: 20%
Share circulating in the blood bound to plasma albumin: approximately 80%
SMILES: N[C@@H](Cc1c[nH]c2ccccc12)C(=O)O [tryptophan]
